In patent US12581252B2, “Substituted pyrrolo[3,4-b]pyridines as PI3K-α inhibitors” (Relay Therapeutics, Inc., priority 2020, dated 2026) one finds IC50 data, which are given here for 48 compounds.

As usually defined, the IC50 is the point on the concentration scale where inhibition reaches its midpoint. A higher IC50 goes with weaker potency in that assay.

The test deals with H1047R PIK3CA enzyme (Homo sapiens, UniProt P42336, H1047R). Description: ADP-Glo Biochemical PIK3CA Kinase Assay. In general terms: ADP-Glo turns the ADP formed in a reaction into a luminescent signal.
Chain of H1047R PIK3CA enzyme (P42336 whole entry H1047R): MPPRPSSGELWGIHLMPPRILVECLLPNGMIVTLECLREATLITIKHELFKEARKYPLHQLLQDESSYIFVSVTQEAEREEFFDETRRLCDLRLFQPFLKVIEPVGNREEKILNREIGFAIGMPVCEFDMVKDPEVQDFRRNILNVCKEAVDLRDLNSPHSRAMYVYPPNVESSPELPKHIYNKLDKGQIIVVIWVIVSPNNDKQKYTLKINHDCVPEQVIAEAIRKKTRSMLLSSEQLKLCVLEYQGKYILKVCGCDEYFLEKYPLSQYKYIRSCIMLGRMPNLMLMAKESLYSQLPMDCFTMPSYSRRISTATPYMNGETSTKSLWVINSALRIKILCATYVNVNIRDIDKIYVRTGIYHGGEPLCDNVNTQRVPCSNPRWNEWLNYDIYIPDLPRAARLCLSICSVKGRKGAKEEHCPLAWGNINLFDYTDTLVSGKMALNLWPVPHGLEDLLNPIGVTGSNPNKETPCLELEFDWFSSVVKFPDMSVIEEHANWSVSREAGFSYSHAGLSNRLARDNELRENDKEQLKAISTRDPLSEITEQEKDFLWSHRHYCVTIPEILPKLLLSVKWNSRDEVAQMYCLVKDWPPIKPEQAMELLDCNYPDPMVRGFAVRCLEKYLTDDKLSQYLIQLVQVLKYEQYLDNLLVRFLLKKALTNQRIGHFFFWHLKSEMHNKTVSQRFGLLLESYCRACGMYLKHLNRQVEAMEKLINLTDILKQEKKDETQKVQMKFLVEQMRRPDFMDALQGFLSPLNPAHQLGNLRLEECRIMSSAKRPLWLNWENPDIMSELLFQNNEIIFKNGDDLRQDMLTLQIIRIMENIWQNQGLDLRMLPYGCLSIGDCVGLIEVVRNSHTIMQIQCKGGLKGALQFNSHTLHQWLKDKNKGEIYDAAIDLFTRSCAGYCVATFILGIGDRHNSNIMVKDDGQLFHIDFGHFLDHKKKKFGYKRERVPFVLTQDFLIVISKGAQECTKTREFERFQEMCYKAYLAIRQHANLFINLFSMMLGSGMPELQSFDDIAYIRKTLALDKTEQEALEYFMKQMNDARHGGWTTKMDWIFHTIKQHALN
Chain of H1047R PIK3CA enzyme (P27986 whole entry partner): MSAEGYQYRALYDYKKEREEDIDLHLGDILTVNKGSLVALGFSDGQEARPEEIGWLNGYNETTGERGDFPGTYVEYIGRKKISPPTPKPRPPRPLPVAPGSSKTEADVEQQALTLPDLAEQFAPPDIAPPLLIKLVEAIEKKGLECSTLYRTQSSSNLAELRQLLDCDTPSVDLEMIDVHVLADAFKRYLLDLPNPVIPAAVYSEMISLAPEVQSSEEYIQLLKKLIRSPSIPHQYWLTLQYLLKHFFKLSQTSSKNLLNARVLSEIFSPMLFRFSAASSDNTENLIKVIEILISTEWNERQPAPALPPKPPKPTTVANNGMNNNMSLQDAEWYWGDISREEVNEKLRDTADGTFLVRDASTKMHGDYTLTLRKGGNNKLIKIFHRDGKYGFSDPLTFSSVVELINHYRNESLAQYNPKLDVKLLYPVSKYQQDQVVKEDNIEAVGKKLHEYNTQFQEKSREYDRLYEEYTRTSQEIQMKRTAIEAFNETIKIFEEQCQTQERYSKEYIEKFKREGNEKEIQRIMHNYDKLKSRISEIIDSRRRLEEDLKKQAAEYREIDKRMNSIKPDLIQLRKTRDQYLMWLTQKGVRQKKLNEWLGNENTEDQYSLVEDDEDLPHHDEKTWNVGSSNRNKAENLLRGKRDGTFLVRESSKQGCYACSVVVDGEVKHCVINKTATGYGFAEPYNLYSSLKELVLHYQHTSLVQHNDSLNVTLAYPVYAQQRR
As for `CN1CCN(C(=O)Nc2cc(Br)cc3c2[C@H](c2cc(F)ccc2Cl)NC3=O)CC1(C)C` (single isomer, unassigned) [Compound I-2240], the half-inhibitory concentration (IC50) lay within 10 to 100 µM.

The compound `CN1CCN(C(=O)Nc2cc(Br)cc3c2[C@@H](c2cc(F)ccc2Cl)NC3=O)CC1(C)C` (single isomer, unassigned) [Compound I-2241] yielded an IC50 of 10 to 100 µM.

In the case of `O=C1N[C@@H](c2cc(F)ccc2Cl)c2c(NC(=O)N3CCOCC(F)(F)C3)cc(Br)cc21` (single isomer, unassigned) [Compound I-2242], the IC50 was 10 to 100 µM.

In turn, `O=C1N[C@H](c2cc(F)ccc2Cl)c2c(NC(=O)N3CCOCC(F)(F)C3)cc(Br)cc21` (single isomer, unassigned) [Compound I-2243] registered a half-inhibitory concentration (IC50) of 10 to 100 µM.

Compound `CN1CCN(C(=O)Nc2cc(Br)cc3c2[C@H](c2cc(F)ccc2Cl)NC3=O)CC1` (single isomer, unassigned) [Compound I-2244] gave an IC50 of 10 to 100 µM.

`CN1CCN(C(=O)Nc2cc(Br)cc3c2[C@@H](c2cc(F)ccc2Cl)NC3=O)CC1` (single isomer, unassigned) [Compound I-2245] registered an IC50 of 10 to 100 µM.

Compound `CC(C)(C)N[C@@H]1NC(=O)c2cccc(NC(=O)c3cc(F)cc(C(F)(F)F)c3)c21` (single isomer, unassigned) [Compound I-2247] had a half-maximal inhibitory concentration (IC50) of 10 to 100 µM.

The compound `CC(C)(C)N[C@H]1NC(=O)c2cccc(NC(=O)c3cc(F)cc(C(F)(F)F)c3)c21` (single isomer, unassigned) [Compound I-2248] returned an IC50 of 10 to 100 µM.

In the case of `O=C(Nc1cccc2c1[C@@H](NC1CCCC1)NC2=O)c1cc(F)cc(C(F)(F)F)c1` (single isomer, unassigned) [Compound I-2249], the 50% inhibitory concentration (IC50) lay within 10 to 100 µM.

`O=C(Nc1cccc2c1[C@H](NC1CCCC1)NC2=O)c1cc(F)cc(C(F)(F)F)c1` (single isomer, unassigned) [Compound I-2250] displayed a half-inhibitory concentration (IC50) of 10 to 100 µM.

As for `O=C1CCC[C@H]([C@H]2NC(=O)c3cccc(NC(=O)c4cc(F)cc(C(F)(F)F)c4)c32)C1` (single isomer, unassigned) [Compound I-2252], the IC50 lay within 10 to 100 µM.

For the compound `O=C1CCC[C@@H]([C@H]2NC(=O)c3cccc(NC(=O)c4cc(F)cc(C(F)(F)F)c4)c32)C1` (single isomer, unassigned) [Compound I-2253], the half-maximal inhibitory concentration (IC50) fell in the range of 10 to 100 µM.

`O=C1CCC[C@H]([C@@H]2NC(=O)c3cccc(NC(=O)c4cc(F)cc(C(F)(F)F)c4)c32)C1` (single isomer, unassigned) [Compound I-2254] registered an IC50 of 10 to 100 µM.

`O=C1CCC[C@@H]([C@@H]2NC(=O)c3cccc(NC(=O)c4cc(F)cc(C(F)(F)F)c4)c32)C1` (single isomer, unassigned) [Compound I-2255] had a half-maximal inhibitory concentration (IC50) of 10 to 100 µM.

Consider `O=C(Nc1cc(-c2cn3ncnc3cn2)cc2c1[C@@H](c1cc(F)ccc1C(F)F)NC2=O)c1cc(F)cc(Cl)c1` (single isomer, unassigned) [Compound I-2258], for which the IC50 lay in the range of 1 to 10 µM.

Take `C[C@@]1(C(=O)Nc2cc(Br)cc3c2[C@@H](c2cc(F)ccc2Cl)NC3=O)CCC[C@H](C(F)(F)F)C1` (single isomer, unassigned) [Compound I-2260]: the half-maximal inhibitory concentration (IC50) lay within 0.5 to 1 µM.

`C[C@]1(C(=O)Nc2cc(Br)cc3c2[C@H](c2cc(F)ccc2Cl)NC3=O)CCC[C@@H](C(F)(F)F)C1` (single isomer, unassigned) [Compound I-2263] showed a 50% inhibitory concentration (IC50) of 1 to 10 µM.

Consider `C[C@@]1(C(=O)Nc2cc(Br)cc3c2[C@@H](c2cc(F)ccc2Cl)NC3=O)CCC[C@H](C(F)(F)F)C1` (single isomer, unassigned) [Compound I-2264], for which the IC50 lay within 0.1 to 0.5 µM.

In the case of `C[C@H](c1nn[nH]c1C(=O)Nc1cccc2c1[C@@H](c1cc(F)ccc1Cl)NC2=O)C(F)(F)F` (single isomer, unassigned) [Compound I-2268], the IC50 is 10 to 100 µM.

As to `C[C@H](c1nn[nH]c1C(=O)Nc1cccc2c1[C@H](c1cc(F)ccc1Cl)NC2=O)C(F)(F)F` (single isomer, unassigned) [Compound I-2269], the concentration for half-maximal inhibition (IC50) was in the range of 10 to 100 µM.

The compound `C[C@@H](c1nn[nH]c1C(=O)Nc1cccc2c1[C@@H](c1cc(F)ccc1Cl)NC2=O)C(F)(F)F` (single isomer, unassigned) [Compound I-2270] yielded an IC50 of 10 to 100 µM.

In the case of `C[C@@H](c1nn[nH]c1C(=O)Nc1cccc2c1[C@H](c1cc(F)ccc1Cl)NC2=O)C(F)(F)F` (single isomer, unassigned) [Compound I-2271], the half-inhibitory concentration (IC50) lay within 1 to 10 µM.

For the compound `O=C1N[C@H](c2cc(F)ccc2Cl)c2c(NC(=O)[C@H]3C[C@@H](O)C[C@@H](C(F)(F)F)C3)cc(Br)cc21` (single isomer, unassigned) [Compound I-2272], the IC50 was 10 to 100 µM.

As to `O=C1N[C@@H](c2cc(F)ccc2Cl)c2c(NC(=O)[C@H]3C[C@@H](O)C[C@@H](C(F)(F)F)C3)cc(Br)cc21` (single isomer, unassigned) [Compound I-2273], the half-maximal inhibitory concentration (IC50) lay within 10 to 100 µM.

`O=C1N[C@H](c2cc(F)ccc2Cl)c2c(NC(=O)[C@H]3CC(C(F)(F)F)C[C@@H](O)C3)cc(Br)cc21` (single isomer, unassigned) [Compound I-2274] gave a 50% inhibitory concentration (IC50) of 10 to 100 µM.

For `O=C1N[C@@H](c2cc(F)ccc2Cl)c2c(NC(=O)[C@H]3CC(C(F)(F)F)C[C@@H](O)C3)cc(Br)cc21` (single isomer, unassigned) [Compound I-2275], the IC50 fell in the range of 10 to 100 µM.

`O=C1N[C@H](c2cc(F)ccc2Cl)c2c(NC(=O)N3C[C@@H](CO)[C@H](C(F)(F)F)C3)cccc21` (single isomer, unassigned) [Compound I-2276] showed an IC50 of 10 to 100 µM.

The compound `O=C1N[C@@H](c2cc(F)ccc2Cl)c2c(NC(=O)N3C[C@@H](CO)[C@H](C(F)(F)F)C3)cccc21` (single isomer, unassigned) [Compound I-2277] returned an IC50 of 1 to 10 µM.

In turn, `O=C1N[C@H](c2cc(F)ccc2Cl)c2c(NC(=O)N3C[C@H](CO)[C@@H](C(F)(F)F)C3)cccc21` (single isomer, unassigned) [Compound I-2278] gave a 50% inhibitory concentration (IC50) of 10 to 100 µM.

`O=C1N[C@@H](c2cc(F)ccc2Cl)c2c(NC(=O)N3C[C@H](CO)[C@@H](C(F)(F)F)C3)cccc21` (single isomer, unassigned) [Compound I-2279]: the half-inhibitory concentration (IC50) is 10 to 100 µM.

On to `O=C(Nc1cccc2c1[C@@H](C[C@@H]1CCCCN1)NC2=O)c1cc(F)cc(C(F)(F)F)c1` (single isomer, unassigned) [Compound I-2281], for which the IC50 is 10 to 100 µM.

`CC([C@@H]1C[C@@H](O)CN1C(=O)Nc1cccc2c1C(c1cc(F)ccc1Cl)NC2=O)C(F)(F)F` (single isomer, unassigned) [Compound I-2286] showed an IC50 of 0.5 to 1 µM.

For `CC([C@H]1C[C@@H](O)CN1C(=O)Nc1cccc2c1C(c1cc(F)ccc1Cl)NC2=O)C(F)(F)F` (single isomer, unassigned) [Compound I-2287], the IC50 lay in the range of 10 to 100 µM.

Consider `O=C1N[C@@H](c2cc(F)ccc2Cl)c2c(NC(=O)N3C[C@H](O)c4cc(F)c(F)cc43)cccc21` (single isomer, unassigned) [Compound I-2291], for which the IC50 lay within 1 to 10 µM.

In turn, `O=C1N[C@H](c2cc(F)ccc2Cl)c2c(NC(=O)N3C[C@H](O)c4cc(F)c(F)cc43)cccc21` (single isomer, unassigned) [Compound I-2292] had an IC50 of 10 to 100 µM.

`O=C1N[C@H](c2cc(F)ccc2Cl)c2c(NC(=O)N3C[C@H](O)c4cc(F)c(F)cc43)cccc21` (single isomer, unassigned) [Compound I-2294] yielded an IC50 of 10 to 100 µM.

The compound `O=C1N[C@H](c2cc(F)ccc2Cl)c2c(NC(=O)N3C[C@@H](O)c4c3ccc(F)c4F)cccc21` (single isomer, unassigned) [Compound I-2311] registered an IC50 of 1 to 10 µM.

In the case of `O=C1N[C@@H](c2cc(F)ccc2Cl)c2c(NC(=O)N3C[C@H](O)c4c3ccc(F)c4F)cccc21` (single isomer, unassigned) [Compound I-2312], the 50% inhibitory concentration (IC50) fell in the range of 1 to 10 µM.

`O=C1N[C@@H](c2cc(F)ccc2Cl)c2c(NC(=O)N3C[C@@H](O)c4c3ccc(F)c4F)cccc21` (single isomer, unassigned) [Compound I-2313] showed an IC50 of 1 to 10 µM.

`O=C(Nc1cccc2c1[C@H]([C@@H]1CCCCCN1)NC2=O)c1cc(F)cc(C(F)(F)F)c1` (single isomer, unassigned) [Compound I-2319] registered an IC50 of 10 to 100 µM.

The compound `O=C(Nc1cc(NC2=NC[C@H](C(F)(F)F)O2)cc2c1[C@H](c1cc(F)ccc1Cl)NC2=O)c1cc(F)cc(C(F)(F)F)c1` (single isomer, unassigned) [Compound I-2323] yielded an IC50 of 0.1 to 0.5 µM.

With `O=C(Nc1cc(NC2=NC[C@H](C(F)(F)F)O2)cc2c1[C@@H](c1cc(F)ccc1Cl)NC2=O)c1cc(F)cc(C(F)(F)F)c1` (single isomer, unassigned) [Compound I-2325], the concentration for half-maximal inhibition (IC50) is 1 to 10 µM.

Regarding `O=C(Nc1cc(NC2=NC[C@@H](C(F)(F)F)O2)cc2c1[C@@H](c1cc(F)ccc1Cl)NC2=O)c1cc(F)cc(C(F)(F)F)c1` (single isomer, unassigned) [Compound I-2326], the IC50 lay within 1 to 10 µM.

In turn, `O=C1NC(c2cc(F)ccc2Cl)c2c(NC(=O)N3CCC4C3[C@H]4C(F)(F)F)cccc21` (single isomer, unassigned) [Compound I-2328] showed an IC50 of 10 to 100 µM.

The compound `O=C1NC(c2cc(F)ccc2Cl)c2c(NC(=O)N3CCC4C3[C@@H]4C(F)(F)F)cccc21` (single isomer, unassigned) [Compound I-2329] displayed a half-maximal inhibitory concentration (IC50) of 1 to 10 µM.

With `O=C1N[C@H](c2cc(F)ccc2Cl)c2c(NC(=O)N3C[C@@H](C(F)F)c4ccccc43)cccc21` (single isomer, unassigned) [Compound I-2331], the half-maximal inhibitory concentration (IC50) lay in the range of 1 to 10 µM.

`O=C1N[C@@H](c2cc(F)ccc2Cl)c2c(NC(=O)N3C[C@H](C(F)F)c4ccccc43)cccc21` (single isomer, unassigned) [Compound I-2332] came in with a 50% inhibitory concentration (IC50) of 1 to 10 µM.

`CC[C@H](CC(=O)Nc1cccc2c1[C@H](c1cc(F)ccc1Cl)NC2=O)[C@@H](C)C(F)(F)F` (single isomer, unassigned) [Compound I-2335] yielded a concentration for half-maximal inhibition (IC50) of 1 to 10 µM.
